A value given as a limit tells only on which side of the number the result lay.

Results on 17 molecules are retold here after paper PMC10134960, “Discovery of sulfonamide-tethered isatin derivatives as novel anticancer agents and VEGFR-2 inhibitors” (Journal of Enzyme Inhibition and Medicinal Chemistry, 2023).

Data set [1] relates to NCI panel of 58 human tumour cell lines. The experiment in a line: NCI in vitro single-dose antiproliferative assay, panel of 58 tumour cell lines. In kind it is cell-based. The conditions noted are these: single concentration of 10 μM, read-out: cell inhibition (mean % growth inhibition, GI). The procedure: (§1) The designed isatin derivatives 6a-i, 11a-c and 12a-c were examined for in vitro antitumor activity on NCI panel involving 58 distinct human tumour cell lines covering nine distinct types of cancer, at single concentration of 10 μM (supplementary file). […] Based on the findings, we concluded that none of compounds 6a, 6c, or 11a were able to increase cell inhibition by more than 20%. And by looking at the mean growth inhibition of the other compounds on each cancer, we discovered that, in addition to CNS cancer in compound 11c and leukaemia in compounds 12b and 12c, all the compounds had the strongest mean growth inhibition on breast cancer cell lines.
(§2) The supplementary data included descriptions of every experimental technique.
(§3) NCI-60 cancer cell lines screening
(§4) Primary anticancer assay was performed on a panel of sixty human tumour cell lines derived from nine neoplastic diseases, in accordance with the protocol of the Drug Evaluation Branch, National Cancer Institute, Bethesda, Maryland, USA. Tested compounds were added to the cell culture at a single concentration ([…]) and the cultures were incubated for 48 h. End point determinations were made with a protein binding dye, sulforhodamine B (SRB). Results for each tested compound were reported as the percent of growth of treated cells when compared to untreated control cells. The percentage growth was evaluated spectrophotometrically versus controls not treated with test agents 1. […]

For data set [2], the target named is CA II (Homo sapiens, UniProt P00918). The experiment in a line: biochemical.
Description: Carbonic anhydrase I, II, and IX inhibition studies
The CO2 hydration actions catalyzed by carbonic anhydrase for targeted compounds herein
presented were measured using an Applied Photophysics stopped-flow instrument. The enzymes
are recombinant proteins that have been created in a lab. Following the initial rates of the CA-
catalyzed CO2 hydration reaction for a period of 10-100 s, phenol red (at a concentration of 0.2
mM) was used as an indicator, working at an absorbance maximum of 557 nm, with 20 mM
Hepes (pH 7.5) as a buffer, and 20 mM Na2SO4 (to maintain constant the ionic strength). The
CO2 concentrations used to determine the kinetic parameters and inhibition constants ranged
from 1.7 to 17 mM. At least six traces of the first 5-10% of the reaction were utilized to
determine the beginning velocity for each inhibitor. In the same way, the uncatalyzed rates were calculated and deducted from the total measured rates. Stock inhibitor solutions (0.1 mM) were
produced in distilled-deionized water, followed by dilutions with the assay buffer up to 0.01 nM.
Prior to the experiment, the inhibitor and enzyme solutions were preincubated together for 15
minutes at room temperature to allow for the development of the E-I complex. The inhibition
constants were calculated using non-linear least-squares methods using the ChengPrusoff
equation in PRISM 3. They reflect the average of at least three individual measurements 6, 7.
The target in data set [3] is T1, CA IX (Homo sapiens, UniProt Q16790).
T1 construct: made in house
Description: Carbonic anhydrase inhibition, stopped-flow CO2 hydration, CA IX. Format: biochemical. The note with it: stopped flow assay, mean of triplicate assays.

The target in data set [4] is T2, CA I (Homo sapiens, UniProt P00915).
T2 construct: made in house
T2 sequence (P00915 whole entry): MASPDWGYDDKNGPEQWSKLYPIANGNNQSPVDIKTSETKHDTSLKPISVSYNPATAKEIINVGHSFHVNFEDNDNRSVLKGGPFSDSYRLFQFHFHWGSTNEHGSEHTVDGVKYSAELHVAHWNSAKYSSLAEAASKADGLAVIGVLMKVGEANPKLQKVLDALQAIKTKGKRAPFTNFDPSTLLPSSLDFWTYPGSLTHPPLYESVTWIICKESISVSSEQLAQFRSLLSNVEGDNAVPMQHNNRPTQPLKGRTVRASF
Description: Carbonic anhydrase inhibition, stopped-flow CO2 hydration, CA I. In kind it is biochemical. The note with it: stopped flow assay, mean of triplicate assays.

The target in data set [5] is T3, VEGFR-2 (Homo sapiens, UniProt P35968).
T3 construct: purchased BioAssay Systems EKIN-400
T3 sequence (P35968 20-1356): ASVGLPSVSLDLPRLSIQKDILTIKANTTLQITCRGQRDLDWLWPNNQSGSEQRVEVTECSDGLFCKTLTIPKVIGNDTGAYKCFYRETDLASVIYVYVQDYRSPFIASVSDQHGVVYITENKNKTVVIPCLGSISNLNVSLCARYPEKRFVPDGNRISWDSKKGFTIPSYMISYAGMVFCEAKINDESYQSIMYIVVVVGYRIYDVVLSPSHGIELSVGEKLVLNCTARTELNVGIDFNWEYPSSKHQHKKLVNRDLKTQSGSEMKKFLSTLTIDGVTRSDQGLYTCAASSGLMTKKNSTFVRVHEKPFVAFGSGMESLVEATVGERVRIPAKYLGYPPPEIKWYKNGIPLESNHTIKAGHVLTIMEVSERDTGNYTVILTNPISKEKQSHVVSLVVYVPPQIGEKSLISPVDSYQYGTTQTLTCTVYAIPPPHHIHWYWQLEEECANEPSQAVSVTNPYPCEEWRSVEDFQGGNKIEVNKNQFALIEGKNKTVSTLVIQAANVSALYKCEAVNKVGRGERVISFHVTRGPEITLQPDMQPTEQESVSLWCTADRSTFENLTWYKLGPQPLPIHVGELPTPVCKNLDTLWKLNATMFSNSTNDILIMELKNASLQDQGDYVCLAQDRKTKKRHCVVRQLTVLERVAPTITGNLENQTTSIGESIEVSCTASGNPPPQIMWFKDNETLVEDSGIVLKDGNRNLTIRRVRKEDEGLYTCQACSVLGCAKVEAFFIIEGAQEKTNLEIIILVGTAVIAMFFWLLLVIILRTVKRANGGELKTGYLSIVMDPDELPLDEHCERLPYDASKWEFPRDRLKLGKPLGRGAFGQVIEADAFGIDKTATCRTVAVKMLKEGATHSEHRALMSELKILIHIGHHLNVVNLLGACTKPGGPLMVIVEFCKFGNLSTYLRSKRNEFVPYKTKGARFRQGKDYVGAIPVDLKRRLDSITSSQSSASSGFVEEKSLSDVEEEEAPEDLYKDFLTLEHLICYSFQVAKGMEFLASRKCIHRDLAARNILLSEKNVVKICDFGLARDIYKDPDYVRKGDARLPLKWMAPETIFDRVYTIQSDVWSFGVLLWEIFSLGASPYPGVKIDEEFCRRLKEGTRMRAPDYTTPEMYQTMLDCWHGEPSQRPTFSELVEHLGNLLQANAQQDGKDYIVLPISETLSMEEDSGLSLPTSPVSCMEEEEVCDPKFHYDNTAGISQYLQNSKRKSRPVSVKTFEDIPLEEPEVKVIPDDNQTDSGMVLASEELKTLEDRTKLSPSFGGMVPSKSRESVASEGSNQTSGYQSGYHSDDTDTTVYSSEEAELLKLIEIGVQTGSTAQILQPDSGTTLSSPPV
The experiment in a line: VEGFR-2 inhibition assay (HTRF). The conditions noted are these: for IC50: mean ± SD of triplicate, read-out: VEGFR-2 IC50 ± S.D. Format: biochemical. (Time-resolved FRET reads energy transfer from a long-lived donor to a nearby acceptor.)
Description: HTRF (homogeneous time-resolved fluorescence) assay method was used to conduct inhibitory action of all newly synthesized compounds against VEGFR-2. VEGFR-2 kinase (BioAssay Systems - Kinase Assay Kit, EKIN-400) and its substrate were incubated for 5 min in a buffer solution with newly synthesized compounds/Sorafnib to initiate the enzymatic reaction, then ATP was added to the reaction mixture. Hold under 30 min at room temperature. The reaction was stopped by adding

Data set [6] deals with T47D cells. The experiment in a line: NCI in vitro single-dose cellular antiproliferative assay, T47D cells. Format: cell-based. The note with it: Homo sapiens; T47D breast cancer cells, single concentration of 10 μM; read-out: GI% (growth inhibition). As to the method:
as §1, §2, §3, §4

Data set [7] has as its system T47D cells. The experiment in a line: In vitro cytotoxicity against T47D (sulforhodamine B colorimetric test). The conditions noted are these: Homo sapiens, 72 h, read-out: IC50 ± S.D. T47D. In general terms: In SRB staining, fixed cells bind dye roughly in proportion to their protein.
Description: Doxorubicin was set as reference in this assay.
The cytotoxic efficacy of the target compounds against T47D cells was determined, using the SRB colorimetric technique, as previously reported. Briefly, exponentially growing cells were trypsinized, counted and seeded at the appropriate densities (5000 cells/100 μL/ well) into 96-well microtiter plates.
Then, the cells were exposed to the tested compounds at the desired concentrations (0.01, 0.1, 1, 10, and 100 μM) or to 1% dimethyl sulfoxide (DMSO) for 72 h. At the end of the treatment period, the media were removed, and the cells were fixed with 10% trichloroacetic acid at 4 °C for 1 h. Following, the cells were washed with tap water four times and incubated with SRB 0.4% for 30 min. Excess dye was removed by washing repeatedly with 1% (vol/vol) acetic acid.
The protein-bound dye was dissolved in 10 mM Tris base solution for (optical density) OD determination at 510 nm using a Spectra Max plus Microplate Reader (Molecular Devices, CA).
Cell viability was expressed relative to the untreated control cells 2, 3.
For data set [8], the system named is T47D cells. The experiment in a line: Cell cycle distribution analysis by flow cytometry. Format: cell-based, human. The note with it: 10 μM, 24 h. The procedure: DMSO (control) or compounds 11b and 12b were applied to T47D cells, and flow cytometry was used to determine the DNA concentration. Figure 3 presents the findings. […]
μM of compounds 11b and 12b.
(§5) and fixed for 12 h. […] Then, the cells
Cell cycle analysis and apoptosis were
experiment has been carried out three times. […]
On the technique in general: A flow cytometer gives signals particle by particle.

Data set [9] relates to T47D cells. The experiment in a line: Annexin V-FITC/PI apoptosis assay. In kind it is cell-based, human. The conditions noted are these: for Early apoptosis / Late apoptosis: 24 h, annexin V-FITC/PI; for increase of overall apoptosis in comparison to the control: versus untreated control.
Description: To explore link between growth suppression activity of compounds 11b and 12b with initiation of apoptosis indicated by rising population of sub-G1 in treated T47D cell lines, the Annexin V-FITC/PI double labelling (AV/PI) apoptosis assay was done. The outcomes of the experiment are shown in Figure 4, showing that compounds 11b and 12b caused T47D cell lines to undergo early and late apoptosis. In fact, % of apoptotic cells amplified from 0.41% at early and 0.22% at late apoptosis in T47D cells that had not been treated to 31.0% of early and 12.07% of late apoptosis in T47D cell that had been treated with compound 11b and to 23.5% at early and 9.4% at late apoptosis of T47D cells that had been treated with compound 12b. According to these findings, compounds 11b and 12b increased the overall apoptosis of T47D cells by roughly 19 and 16.2 times, respectively, in comparison to the control.
The supplementary data included descriptions of every experimental technique. […]
μM of compounds 11b and 12b. […]
as §5
Cell cycle analysis and apoptosis were […]
experiment has been carried out three times.
Annexin V-FITC apoptosis assay […]
washed with cold phosphate-buffer saline (PBS). Cells were then stained with Annexin V-FITC […]
The samples were analyzed using the flow cytometer 8, 9.

Data set [10] addresses CA IX. Set-up: method as in PMID 30445264. The conditions noted are these: cancer-related CA IX isoform; cited from earlier work.

For orientation: melting point means the temperature of the solid-liquid transition. For orientation: inhibition means the relative decrease from the control value, in per cent. In turn, `COc1ccc(/C(C)=N/N=C2/C(=O)Nc3ccccc32)cc1S(N)(=O)=O` [Compound 6a] showed a melting point of 250 to 252 °C. In addition, the inhibition at 10 µM in [1] was at most 20%.
For the molecule `COc1ccc(/C(C)=N/N=C2/C(=O)Nc3ccc(F)cc32)cc1S(N)(=O)=O` [Compound 6b], the melting point lay in the range of 262 to 264 °C.
With `COc1ccc(/C(C)=N/N=C2/C(=O)Nc3c(F)cccc32)cc1S(N)(=O)=O` [Compound 6c], the melting point fell in the range of 266 to 268 °C. The inhibition at 10 µM in [1] is at most 20%.
The molecule `COc1ccc(/C(C)=N/N=C2/C(=O)Nc3ccc(Cl)cc32)cc1S(N)(=O)=O` [Compound 6d] had a melting point of 268 to 270 °C.
Same read-out and setting: as for `COc1ccc(/C(C)=N/N=C2/C(=O)Nc3c(Cl)cccc32)cc1S(N)(=O)=O` [Compound 6e], the figure is 278 to 280 °C.
One may read the Ki as a measure of affinity in units of concentration, obtained from inhibition or displacement. For orientation: IC50 means the concentration at which inhibition is half-maximal. `COc1ccc(/C(C)=N/N=C2/C(=O)Nc3ccc(Br)cc32)cc1S(N)(=O)=O` [Compound 6f]: the melting point fell in the range of 274 to 276 °C. In data set [2], this molecule registered an inhibitory constant (Ki) of over 100 µM. This molecule came in with a Ki in [3] of over 100 µM. Further, in [4], the Ki is over 100 µM. For the same molecule, in data set [5], testing at 10 µM gave an inhibition of 86.8% and the IC50 was determined as 0.0567 ± 0.00072 µM. Also, the inhibition at 10 µM in [6] stood at 54%. In addition, the IC50 in [7] was determined as 5.45 ± 0.24 µM.
`COc1ccc(/C(C)=N/N=C2/C(=O)Nc3cc(Br)ccc32)cc1S(N)(=O)=O` [Compound 6g] displayed a melting point of 276 to 278 °C.
The same measure, in the same setting: as for `COc1ccc2c(c1)/C(=N\N=C(/C)c1ccc(OC)c(S(N)(=O)=O)c1)C(=O)N2` [Compound 6h], the figure is 264 to 266 °C.
Regarding `COc1ccc(/C(C)=N/N=C2/C(=O)Nc3ccc(OC(F)(F)F)cc32)cc1S(N)(=O)=O` [Compound 6i], the melting point lay in the range of 270 to 272 °C. Moreover, the inhibition at 10 µM in data set [6] stood at 32%. The IC50 in data set [7] came out at 24.1 ± 1.08 µM.
Turning to `COc1ccc(/C(C)=N/N=C2/C(=O)N(C)c3ccccc32)cc1S(N)(=O)=O` [Compound 11a], the inhibition at 10 µM in data set [1] is at most 20%.
Molecule `COc1ccc(/C(C)=N/N=C2/C(=O)N(C)c3ccc(Cl)cc32)cc1S(N)(=O)=O` [Compound 11b] registered a melting point of 248 to 250 °C. Moreover, in data set [8], the “%G0/G1” value turned out to be 68.42% and the “%Sub-G1” value is on record as 45.88%. The same molecule registered an inhibition constant (Ki) in data set [2] of over 100 µM. For the same molecule, in [9], the Early apoptosis amounted to 31.0%, the Late apoptosis amounted to 12.07% and the “increase of overall apoptosis in comparison to the control” value is given as “roughly 19 times”. In [3], the Ki was over 100 µM. In data set [4], this molecule returned a Ki of over 100 µM. In [5], the inhibition at 10 µM was found to be 72.7% and the IC50 was found to be 0.0634 ± 0.00072 µM. Also, the inhibition at 10 µM in [6] worked out at 55%. Further, the IC50 in data set [7] was found to be 1.83 ± 0.08 µM.
`COc1ccc(/C(C)=N/N=C2/C(=O)N(C)c3ccc(Br)cc32)cc1S(N)(=O)=O` [Compound 11c] registered a melting point of 263 to 265 °C. Besides, the Ki in data set [2] was over 100 µM. Further, the Ki in data set [3] was over 100 µM. Also, the Ki in [4] was over 100 µM. Besides, in data set [5], at 10 µM the inhibition was 92% and the IC50 was 0.0301 ± 0.00031 µM. The inhibition at 10 µM in data set [6] came to 52%. In addition, the IC50 in data set [7] worked out at 10.4 ± 0.47 µM.
Consider `COc1ccc(/C(C)=N/N=C2/C(=O)N(Cc3ccccc3)c3ccccc32)cc1S(N)(=O)=O` [Compound 12a], for which the melting point was 235 to 237 °C. Besides, the inhibition at 10 µM in data set [6] is 57%. The IC50 in [7] worked out at 11.6 ± 0.52 µM.
For the molecule `COc1ccc(/C(C)=N/N=C2/C(=O)N(Cc3ccccc3)c3ccc(Cl)cc32)cc1S(N)(=O)=O` [Compound 12b], the melting point was 245 to 247 °C. Moreover, in data set [8], the “%S” value turned out to be 41.05% and the “%Sub-G1” value stood at 39.15%. In addition, the Ki in data set [2] is over 100 µM. In data set [9], the Early apoptosis was 23.5%, the Late apoptosis came to 9.4% and the “increase of overall apoptosis in comparison to the control” value is recorded as about 16.2 times. In [3], this molecule showed a Ki of over 100 µM. In data set [4], the Ki is over 100 µM. For the same molecule, in data set [5], at 10 µM the inhibition was 97.2% and the IC50 came to 0.0231 ± 0.00041 µM. Moreover, the inhibition at 10 µM in data set [6] was determined as 28%. The IC50 in data set [7] worked out at 3.59 ± 0.16 µM.
As for `COc1ccc(/C(C)=N/N=C2/C(=O)N(Cc3ccccc3)c3ccc(Br)cc32)cc1S(N)(=O)=O` [Compound 12c], the melting point lay within 260 to 262 °C. Also, the inhibition at 10 µM in data set [6] is 39%. The IC50 in [7] is 16.5 ± 0.74 µM.
`COc1cccc2c1C(=O)c1c(O)c3c(c(O)c1C2=O)C[C@@](O)(C(=O)CO)C[C@@H]3O[C@H]1C[C@H](N)[C@H](O)[C@H](C)O1` [Doxorubicin, reference compound]: in [7], the IC50 was found to be 2.26 ± 0.1 µM.
`CN1C(=O)/C(=N\c2ccc(NC(=O)Nc3ccc(S(N)(=O)=O)cc3)cc2)c2cc(Cl)ccc21` [compound II]: the Ki in [10] was 0.0052 µM.
